Results taken from patent US6355799B1, “Substituted benzene compounds, process for their preparation, and herbicidal and defoliant compositions containing them” (ISK Americas Incorporated, priority 1997, dated 2002).

Experiments:
Type in all cases: in vivo
[1] = system: redroot pigweed (Amaranthus retroflexus, AMARE); experiment: Post-emerge test, greenhouse herbicide activity screening; settings: post-emerge, 14 days after application
How it was run: (§1)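 Herbicidal damage is scored 0 (none) to 100 (complete plant death) two weeks after a simulated field spray. Rates span 15–1000 g ai/ha, delivered in acetone at 187 l/ha. For post-emergence treatments, plants have 2–3 leaves and the spray carries 0.25% v/v non-ionic surfactant.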

[2] = system: johnsongrass (Sorghum halepense, SORHA); experiment: as above; settings: post-emerge, 14 days after application, rating scale 0-100
How it was run: as §1

[3] = system: green foxtail (Setaria viridis, SETVI); experiment: as above; settings: post-emerge, 14 days after application, rating scale 0-100
How it was run: as §1

[4] = system: barnyardgrass (Echinochloa crus-galli, ECHCG); experiment: as above; settings: post-emerge, 14 days after application, rating scale 0-100
How it was run: as §1

[5] = system: large crabgrass (Digitaria sanguinalis, DIGSA); experiment: as above; settings: post-emerge, 14 days after application, rating scale 0-100
How it was run: as §1

[6] = system: velvetleaf (Abutilon theophrasti, ABUTH); experiment: as above; settings: post-emerge, 14 days after application, rating scale 0-100
How it was run: as §1

[7] = system: ivyleaf morningglory (Ipomoea hederacea, IPOHE); experiment: as above; settings: post-emerge, 14 days after application, rating scale 0-100
How it was run: as §1

[8] = system: sicklepod (Cassia obtusifolia, CASOB); experiment: as above; settings: post-emerge, 14 days after application, rating scale 0-100
How it was run: as §1

[9] = system: lambsquarters (Chenopodium album, CHEAL); experiment: as above; settings: post-emerge, 14 days after application, rating scale 0-100
How it was run: as §1

[10] = system: johnsongrass (Sorghum halepense, SORHA); experiment: Pre-emerge test, greenhouse herbicide activity screening; settings: phytotoxicity rating 0-100, 14 days after application
How it was run: (§2)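 Compounds in acetone were track-sprayed at 15-1000 g ai/ha (187 l/ha) on sandy loam pots: pre-emerge one day after seeding, post-emerge at 2-3 leaf stage with 0.25% v/v non-ionic surfactant. Phytotoxicity was rated 14 days later on a 0 (no damage) to 100 (complete death) scale.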

[11] = system: green foxtail (Setaria viridis, SETVI); experiment: as above; settings: phytotoxicity rating 0-100, 14 days after application
How it was run: as §2

[12] = system: barnyardgrass (Echinochloa crus-galli, ECHCG); experiment: as above; settings: phytotoxicity rating 0-100, 14 days after application
How it was run: as §2

[13] = system: large crabgrass (Digitaria sanguinalis, DIGSA); experiment: as above; settings: phytotoxicity rating 0-100, 14 days after application
How it was run: as §2

[14] = system: velvetleaf (Abutilon theophrasti, ABUTH); experiment: as above; settings: phytotoxicity rating 0-100, 14 days after application
How it was run: as §2

[15] = system: ivyleaf morningglory (Ipomoea hederacea, IPOHE); experiment: as above; settings: phytotoxicity rating 0-100, 14 days after application
How it was run: as §2

[16] = system: sicklepod (Cassia obtusifolia, CASOB); experiment: as above; settings: phytotoxicity rating 0-100, 14 days after application
How it was run: as §2

[17] = system: lambsquarters (Chenopodium album, CHEAL); experiment: as above; settings: phytotoxicity rating 0-100, 14 days after application
How it was run: as §2

[18] = system: field corn (Zea mays L., var. Dekalb 535, CORN); experiment: Pre-emerge test, crop safety; settings: crop damage rating 0-100, 14 days after application
How it was run: (§3)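 Visual ratings on a 0-100 scale (0 no damage, 100 all plants dead) were taken at 14 days after treatment. Rates of 15-1000 g ai/ha in acetone, 187 l/ha, were sprayed onto soil one day after planting (pre-emerge) or onto 2-3 leaf plants with 0.25% v/v surfactant (post-emerge).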

[19] = system: upland rice (Oryza sp., var. Tebonnet, RICE); experiment: Pre-emerge test, crop safety; settings: crop damage rating 0-100, 14 days after application
How it was run: as §3

[20] = system: field corn (Zea mays L., var. Dekalb 535, CORN); experiment: Post-emerge test, crop safety; settings: post-emerge, 14 days after application, rating scale 0-100
How it was run: as §2

[21] = system: upland rice (Oryza sp., var. Tebonnet, RICE); experiment: Post-emerge test, crop safety; settings: post-emerge, 14 days after application, rating scale 0-100
How it was run: as §2

[22] = system: redroot pigweed (Amaranthus retroflexus, AMARE); experiment: Pre-emerge test, greenhouse herbicide activity screening; settings: phytotoxicity rating 0-100, 14 days after application
How it was run: as §3

COc1c(Cl)cc(F)c(-n2c(=O)cc(C(F)(F)F)n(C)c2=O)c1NC(=O)Oc1ccccc1C(C)(C)C [4-27]
10: phytotoxicity rating SETVI ([3]; 250 g ai/ha) | Pre-emerge Herbicidal Activity RICE ([19]; 63 g ai/ha) | phytotoxicity rating CORN (crop damage) ([20]; 250 g ai/ha) | phytotoxicity rating RICE (crop damage) ([21]; 250 g ai/ha)
60: phytotoxicity rating AMARE ([1]; 63 g ai/ha, rating scale 0-100 (0 no damage, 100 complete death)) | phytotoxicity rating CHEAL ([9]; 63 g ai/ha)
20: phytotoxicity rating CASOB ([8]; 63 g ai/ha) | Pre-emerge Herbicidal Activity IPOHE ([15]; 63 g ai/ha)
0: phytotoxicity rating SORHA ([2]; 63 g ai/ha) | phytotoxicity rating SORHA ([2]; 250 g ai/ha) | phytotoxicity rating SETVI ([3]; 63 g ai/ha) | phytotoxicity rating ECHCG ([4]; 63 g ai/ha) | phytotoxicity rating ECHCG ([4]; 250 g ai/ha) | phytotoxicity rating DIGSA ([5]; 63 g ai/ha) | phytotoxicity rating DIGSA ([5]; 250 g ai/ha) | Pre-emerge Herbicidal Activity SORHA ([10]; 63 g ai/ha) | Pre-emerge Herbicidal Activity SORHA ([10]; 250 g ai/ha) | Pre-emerge Herbicidal Activity ECHCG ([12]; 63 g ai/ha) | Pre-emerge Herbicidal Activity ECHCG ([12]; 250 g ai/ha) | Pre-emerge Herbicidal Activity DIGSA ([13]; 63 g ai/ha) | Pre-emerge Herbicidal Activity DIGSA ([13]; 250 g ai/ha) | Pre-emerge Herbicidal Activity CASOB ([16]; 63 g ai/ha) | Pre-emerge Herbicidal Activity CORN ([18]; 63 g ai/ha) | Pre-emerge Herbicidal Activity CORN ([18]; 250 g ai/ha) | phytotoxicity rating RICE (crop damage) ([21]; 63 g ai/ha)
30: Pre-emerge Herbicidal Activity SETVI ([11]; 63 g ai/ha) | Pre-emerge Herbicidal Activity CASOB ([16]; 250 g ai/ha)
5: phytotoxicity rating CORN (crop damage) ([20]; 63 g ai/ha)
50: Pre-emerge Herbicidal Activity SETVI ([11]; 250 g ai/ha) | Pre-emerge Herbicidal Activity IPOHE ([15]; 250 g ai/ha) | Pre-emerge Herbicidal Activity RICE ([19]; 250 g ai/ha)
80: phytotoxicity rating AMARE ([1]; 250 g ai/ha, rating scale 0-100) | phytotoxicity rating IPOHE ([7]; 250 g ai/ha) | Pre-emerge Herbicidal Activity ABUTH ([14]; 63 g ai/ha) | Pre-emerge Herbicidal Activity CHEAL ([17]; 63 g ai/ha)
100: phytotoxicity rating ABUTH ([6]; 250 g ai/ha) | phytotoxicity rating CHEAL ([9]; 250 g ai/ha) | Pre-emerge Herbicidal Activity ABUTH ([14]; 250 g ai/ha) | Pre-emerge Herbicidal Activity CHEAL ([17]; 250 g ai/ha) | Pre-emerge Herbicidal Activity AMARE ([22]; 250 g ai/ha)
40: phytotoxicity rating CASOB ([8]; 250 g ai/ha)
70: phytotoxicity rating ABUTH ([6]; 63 g ai/ha) | phytotoxicity rating IPOHE ([7]; 63 g ai/ha) | Pre-emerge Herbicidal Activity AMARE ([22]; 63 g ai/ha)
